According to publication PMC11358582, “Discovery of a potential bladder cancer inhibitor CHNQD-01281 by regulating EGFR and promoting infiltration of cytotoxic T cells” (Marine Life Science & Technology, 2024):

Experiments:
[1] = tested on: J82 cell line; test: Wound healing assay (migration); assay type: cell-based, human; conditions: J82, 0.16 µmol/L, 24 h
Method: (§1) Fig. 3 Effects of CHNQD-01281 on colony formation and migration of T24 and J82 cell lines. A T24 and J82 cell lines were cultured for 12 days with varying concentrations of CHNQD-01281 (0−0.16 μmol/L) and colonies were fixed and dyed with 0.1% crystal violet. B The relative colony numbers are shown. C Scratches of T24 and J82 cell colonies were generated with pipette tips (200 μL). After 24 h of incubation with 0−0.16 μmol/L CHNQD-01281, representative images were captured. D Histograms display the healed rate. Data are represented as the mean ± SD of three independent experiments. **P < 0.01, ***P < 0.001 and ****P < 0.0001 versus the 0 μmol/L group
(§2) Metastasis and invasiveness are important indications for progression of bladder cancer. […] At the concentration of 0.16 µmol/L, the healed rate of T24 and J82 was 21% and 29%, respectively.

[2] = tested on: T24 cell line; test: Wound healing assay (migration); assay type: cell-based, human; conditions: T24, 0.16 µmol/L, 24 h
Method: as §1, §2

[3] = tested on: J82 cell line; test: Cell cycle analysis (Muse Cell Analyzer); assay type: cell-based, human
Method: (§3) T24 and J82 cell lines were seeded in 6-well plates (3 × 10^5 cells/well) and treated with different concentrations of CHNQD-01281 or DMSO. Cells were then harvested, washed with ice-cold PBS, and fixed in 70% cold ethanol overnight at − 20 °C. Fixed cells were then collected, washed, and stained with 200 μL of Muse™ cell cycle reagent for 30 min in the dark at room temperature. The cell cycle distribution was immediately analyzed by Muse Cell Analyzer (Millipore, Billerica, MA, USA).
(§4) The G1/S transition is a key checkpoint in the cell cycle that regulates DNA replication. As the cell cycle progresses, G1 phase arrest leads to apoptosis or repair mechanisms.

[4] = tested on: T24 cell line; test: Cell cycle analysis (Muse Cell Analyzer); assay type: cell-based, human
Method: as §3, §4

[5] = tested on: EGFR; test: Western blot of EGFR expression in T24 cells; assay type: cell-based, human; conditions: T24, 0.16 µmol/L, versus control
Method: (§5) T24 and J82 cell lines were lysed in protein lysis buffer, which included phosphatase inhibitors and a cocktail of protease inhibitors. A BCA kit (SparkJade, China) was used to determine the total protein concentration. After protein denaturation, SDS-PAGE electrophoresis was performed and the protein transferred from the gel to a PVDF membrane (Millipore, USA). Then primary antibodies against cleaved caspases-3, cleaved PARP, AKT, phosphorylated AKT, ERK1/2, phosphorylated ERK1/2, EGFR, mTOR, phosphorylated mTOR and Tubulin (CST, USA) were diluted at 1:1000 at 4 °C overnight. The membranes were then washed and incubated with secondary antibodies dissolved in 5% nonfat milk. A chemiluminescence imaging system was used to detect the signals (Tanon, China).
(§6) EGFR is overexpressed in malignant urothelial cells, which is associated with the deterioration, invasiveness and metastasis of tumors. It is a potential therapeutic target for bladder carcinoma. Therefore, we examined the expression of EGFR and its downstream proteins after treating bladder cancer cells with CHNQD-01281 (Supplementary Fig. S11). […] Taken together, CHNQD-01281 inhibited the proliferation of bladder cancer cells and induced apoptosis through EGFR/PI3K/AKT and EGFR/ERK pathways to exert antitumor effects.

[6] = tested on: EGFR; test: Western blot of EGFR expression in J82 cells; assay type: cell-based, human; conditions: J82, 0.16 µmol/L, versus control
Method: as §5, §6

[7] = tested on: p-AKT/AKT; test: Western blot of EGFR downstream proteins; assay type: cell-based, human; conditions: 0.16 µmol/L
Method: as §5, §6

[8] = tested on: p-ERK/ERK; test: Western blot of EGFR downstream proteins; assay type: cell-based, human; conditions: 0.16 µmol/L
Method: as §5, §6

[9] = tested on: p-mTOR/mTOR; test: Western blot of EGFR downstream proteins; assay type: cell-based, human; conditions: 0.16 µmol/L
Method: as §5, §6

[10] = tested on: MB49 tumor; test: MB49 homologous (syngeneic) tumor model; assay type: in vivo, C57BL/6 mice
Method: Specific pathogen free (SPF)-grade C57BL/6 mice and BALB/c-nu mice were purchased from Jinan Pengyue Experimental Animal Center (license No. SCXK 20190003). The protocol was approved by the Research Review Committee of the Ocean University of China. All mice were housed in 12-h light and 12-h dark conditions in which the humidity was 50% ± 10% and the temperature was 22 ± 2 °C. All mice had free access to food and water. The human bladder cancer cell line T24 was injected subcutaneously into BALB/c-nu mice to construct a xenograft tumor model. The cell suspension of mouse bladder cancer cell line MB49 was injected into C57BL/6 mice subcutaneously to construct a syngeneic tumor model.
Fixed tissues were embedded in paraffin and then sectioned. The specimens were incubated with antibodies against Ki67, CD3, CD4, CD8 (Servicebio, China) and EGFR (ABclonal, China) at 4 °C overnight. The next day, the slides were washed with 1 × PBST three times for 5 min each and stained with the secondary antibodies and Hoechst 33342 dye (Beyotime, China) for 60 min for IF. For IHC staining, the sections were developed with a rabbit/mouse HRP kits (DAB) (Beyotime, China) according to the manufacturer’s instructions.
In addition, apoptosis, necrosis, and increased eosinophil cytoplasm were observed and there was a large number of lymphocyte infiltration in the treatment group.

[11] = Single-dose safety profile, HE staining of main organs; assay type: in vivo, C57BL/6 mice; conditions: single dose 100 mg/kg, i.p.
Method: (§7) To further investigate the safety profile of CHNQD-01281 in vivo, the HE staining of the heart, liver, spleen, lung, kidney and duodenum of C57 mice were analyzed after the single dose of CHNQD-01281 (100 mg/kg, i.p.). […] The distribution of CHNQD-01281 in tumor and main organs of C57BL/6 mice was then analyzed.
(§8) Fig. S14. Safety profile and tissue distribution of CHNQD-01281 in vivo. A Representative H&E staining images (scale bar: 50 μm) of main organs from vehicle and CHNQD-01281 (100 mg/kg, ip.) treated C57BL/6 mice (n = 3). B Bodyweight evaluation of mouse after treatment with vehicle and CHNQD-01281. C Tissue distribution of CHNQD-01281 in C57BL/6 mice (n = 3).

[12] = Tissue distribution in tumor and main organs; assay type: in vivo, C57BL/6 mice; conditions: tumor, heart, duodenum and spleen
Method: as §7, §8

SMILES: C[C@H]1CCC/C=C/[C@@H]2C[C@H](O)C[C@H]2[C@H](OC(=O)/C=C/c2cccnc2)/C=C/C(=O)O1 [CHNQD-01281, Brefeldin A 4-O-3-(pyridin-3-yl) acrylate]
- healed rate [1]: 29%
- healed rate [2]: 21%
- proportion of cells in S phase ([3]; J82, 0.04 µmol/L (control 27.5%)): 26.0%
- G0/G1 cells ([3]; J82, 0.04 µmol/L (control 53.1%)): 60.3%
- proportion of cells in S phase ([3]; J82, 0.08 µmol/L (control 27.5%)): 22.1%
- G0/G1 cells ([3]; J82, 0.08 µmol/L (control 53.1%)): 66.3%
- proportion of cells in S phase ([3]; J82, 0.16 µmol/L (control 27.5%)): 18.2%
- G0/G1 cells ([3]; J82, 0.16 µmol/L (control 53.1%)): 73.6%
- proportion of cells in S phase ([4]; T24, 0.04 µmol/L (control 20.5%)): 18.9%
- G0/G1 cells ([4]; T24, 0.04 µmol/L (control 61.4%)): 65.0%
- proportion of cells in S phase ([4]; T24, 0.08 µmol/L (control 20.5%)): 13.5%
- G0/G1 cells ([4]; T24, 0.08 µmol/L (control 61.4%)): 75.2%
- proportion of cells in S phase ([4]; T24, 0.16 µmol/L (control 20.5%)): 11.4%
- G0/G1 cells ([4]; T24, 0.16 µmol/L (control 61.4%)): 80.6%
- maximum down-regulation of EGFR expression [5]: 77.61%
- maximum down-regulation of EGFR expression [6]: 87.61%
- decrease of p-AKT/AKT expression level [7]: 99.96%
- decrease of p-ERK/ERK expression level [8]: 96.95%
- decrease of p-mTOR/mTOR expression level [9]: 60.36%
- mice with tumor disappearance ([10]; 10 mg/kg intratumoral, no recurrence within 30 days after cessation): 20%
- life prolongation rate (ILS) ([10]; 10 mg/kg, intratumoral injection, QD): 68.16%
- infiltration of CD3+, CD4+ and CD8+ T cells (immunofluorescence) ([10]; 10 mg/kg, intratumoral injection, QD, tumor tissue): significantly increased
- HE staining of heart, liver, spleen, lung, kidney and duodenum [11]: no obvious abnormalities in cell and tissue morphology
- time of rapid concentration elimination [12]: ≤ 1 h
